Data as given in US20100016379A1, “Terephthalamate Compounds and Compositions, and Their Use as HIV Integrase Inhibitors” (IRM LLC, priority 2006, published 2010).
Where two headings read alike, the source gives them in different places.

Experiments:
HIV-1 integrase = molecular target: T1, HIV-1 integrase (Human immunodeficiency virus type 1 group M subtype B, UniProt P04585); assay: HIV-1 integrase strand transfer assay (Screen 2); type: biochemical
T1 construct: An HIV-1 integrase strand transfer assay
Excerpt: Screen 2: An HIV-1 integrase strand transfer assay, (see Wang et al, J. Biomol. Screen. (2005) 10: 456), that identifies anti-HIV activity due to inhibition of HIV integrase.

HIV = assay: cell-based HIV luciferase reporter infection assay (Screen 1); settings: for EC50: Human immunodeficiency virus 1, read-out: HIV Activity EC50
Description: HIV therapeutic agents inhibit propagation of HIV in cells, and as such cell-based assays of HIV antiviral activity have been developed. For example, Pauwels et al, Nature (1990) 343: 470-4 describe incubating HIV infected cells with test compounds and subsequently determining cell viability via colorimetric methods, to give an EC50 for the inhibition of HIV-1 replication.
Screen 1: A high throughput cell-based HIV luciferase reporter infection assay (see He et al, Bioorg. Med. Chem. Lett. (2006) 16) that identifies inhibitors of early HIV infection events. The results are shown in Table 2 below, expressed as EC50 (μM), the molar concentration that produces 50% of the maximal possible response.

[1] = cytotoxicity assay (Screen 3); type: cell-based; settings: human, HE 293T cells
Excerpt: Screen 3: A cytotoxicity assay, to determine inhibitory activity against HE 293T cells.

[2] = test system: NNRTI resistant mutant L100I; assay: Inhibition of NNRTI resistant mutants, L100I; type: cell-based, HIV; settings: Human immunodeficiency virus 1, read-out: Inhibition of NNRTI resistant mutants (EC50) L100I
Description: (§1) Select compounds are assayed against key NNRTI resistant mutants.

[3] = test system: NNRTI resistant mutant Y181C; assay: Inhibition of NNRTI resistant mutants, Y181C; type: cell-based, HIV; settings: Human immunodeficiency virus 1, read-out: Inhibition of NNRTI resistant mutants (EC50) Y181C
Description: as §1

WT = assay: Inhibition of NNRTI resistant mutants, WT; type: cell-based, HIV; settings: Human immunodeficiency virus 1, read-out: Inhibition of NNRTI resistant mutants (EC50) WT
Description: as §1

[4] = test system: NNRTI resistant mutant K103N; assay: Inhibition of NNRTI resistant mutants, K103N; type: cell-based, HIV; settings: Human immunodeficiency virus 1, read-out: Inhibition of NNRTI resistant mutants (EC50) K103N
Description: as §1

[5] = test system: NNRTI resistant mutant Y188L; assay: Inhibition of NNRTI resistant mutants, Y188L; type: cell-based, HIV; settings: Human immunodeficiency virus 1, read-out: Inhibition of NNRTI resistant mutants (EC50) Y188L
Description: as §1

[6] = strand transfer assay, read-out: Integrase Activity IC50

| SMILES | IC50 (HIV-1 integrase; [6]) | EC50 (HIV) | CC50 [1] | EC50 [2] | EC50 [3] | EC50 (WT) | EC50 [4] | EC50 [5] | IC50 (HIV-1 integrase) | activity in the enzymatic assay (HIV-1 integrase; result in words) | activity in the cellular assay (HIV; result in words) |
| --- | --- | --- | --- | --- | --- | --- | --- | --- | --- | --- | --- |
| COC(=O)c1ccc(C(=O)NCc2cccc(C(F)(F)F)c2)c(O)c1O [Compound 14, methyl 4-(3-(trifluoromethyl)benzylcarbamoyl)-2,3-dihydroxybenzoate] | 50 to 500 nM | 500 to 2000 nM | 500 to 2000 nM |  |  |  |  |  |  |  |  |
| COC(=O)c1ccc(C(=O)NCc2ccccc2[N+](=O)[O-])c(O)c1O [Compound 10, methyl 4-(2-nitrobenzylcarbamoyl)-2,3-dihydroxybenzoate] | < 50 nM | 50 to 500 nM | 500 to 2000 nM | < 50 nM | 50 to 500 nM | 50 to 500 nM | < 50 nM | 50 to 500 nM |  |  |  |
| COC(=O)c1ccc(C(=O)NCc2ccc(C(F)(F)F)cc2)c(O)c1O [Compound 15, methyl 4-(4-(trifluoromethyl)benzylcarbamoyl)-2,3-dihydroxybenzoate] | 500 to 2000 nM | 500 to 2000 nM | 500 to 2000 nM |  |  |  |  |  |  |  |  |
| COC(=O)c1ccc(C(=O)Nc2ccccc2)c(O)c1O [Compound 20, methyl 4-(phenylcarbamoyl)-2,3-dihydroxybenzoate] | < 50 nM | < 50 nM | 500 to 2000 nM | < 50 nM | < 50 nM | < 50 nM | < 50 nM | < 50 nM |  |  |  |
| COC(=O)c1ccc(C(=O)NCc2ccccc2C(F)(F)F)c(O)c1O [Compound 13, methyl 4-(2-(trifluoromethyl)benzylcarbamoyl)-2,3-dihydroxybenzoate] | 50 to 500 nM | 50 to 500 nM | 500 to 2000 nM |  |  |  |  |  |  |  |  |
| COC(=O)c1ccc(C(=O)NCc2ccccn2)c(O)c1O [Compound 16, methyl 4-((pyridin-2-yl)methylcarbamoyl)-2,3-dihydroxybenzoate] | 50 to 500 nM | 50 to 500 nM | > 2000 nM | 50 to 500 nM | 50 to 500 nM | 50 to 500 nM | 50 to 500 nM | 50 to 500 nM |  |  |  |
| O=C(NCc1ccccc1)c1cccnc1O [Compound 6, N-benzyl-2-hydroxypyridine-3-carboxamide] |  | > 2000 nM | > 2000 nM |  |  |  |  |  |  |  |  |
| COC(=O)c1ccc(C(=O)NCc2ccncc2)c(O)c1O [Compound 18, methyl 4-((pyridin-4-yl)methylcarbamoyl)-2,3-dihydroxybenzoate] | 50 to 500 nM | 50 to 500 nM | > 2000 nM |  |  |  |  |  |  |  |  |
| O=C(NCc1ccccc1)c1cccc(O)c1O [Compound 2, N-benzyl-2,3-dihydroxybenzamide] |  | > 2000 nM | > 2000 nM |  |  |  |  |  |  |  |  |
| O=C(NCc1ccccc1)c1cccc(O)n1 [Compound 5, N-benzyl-6-hydroxypyridine-2-carboxamide] |  | > 2000 nM | > 2000 nM |  |  |  |  |  |  |  |  |
| COC(=O)c1ccc(C(=O)NCc2cccnc2)c(O)c1O [Compound 17, methyl 4-((pyridin-3-yl)methylcarbamoyl)-2,3-dihydroxybenzoate] | 50 to 500 nM | 50 to 500 nM | > 2000 nM |  |  |  |  |  |  |  |  |
| COC(=O)c1ccc(C(=O)NCc2ccccc2OC)c(O)c1O [Compound 7, methyl 4-(2-methoxybenzylcarbamoyl)-2,3-dihydroxybenzoate] | < 50 nM | < 50 nM | 500 to 2000 nM | < 50 nM | 50 to 500 nM | < 50 nM | < 50 nM | 50 to 500 nM |  |  |  |
| O=C(NCc1ccccc1)c1cccc(O)c1 [Compound 3, N-benzyl-3-hydroxybenzamide] |  | > 2000 nM | > 2000 nM |  |  |  |  |  |  |  |  |
| COC(=O)c1ccc(C(=O)NCc2ccc([N+](=O)[O-])cc2)c(O)c1O [Compound 12, methyl 4-(4-nitrobenzylcarbamoyl)-2,3-dihydroxybenzoate] | 50 to 500 nM | 50 to 500 nM | 500 to 2000 nM |  |  |  |  |  |  |  |  |
| COC(=O)c1ccc2c(=O)n(Cc3ccccc3)c(=O)oc2c1O [Compound 21, 3-benzyl-8-hydroxy-2,4-dioxo-3,4-dihydro-2H-benzo[e][1,3]oxazine-7-carboxylic acid methyl ester] |  | 50 to 500 nM | > 2000 nM | 50 to 500 nM | 50 to 500 nM | 50 to 500 nM | 50 to 500 nM | 50 to 500 nM | 50 to 500 nM | maintains activity | maintains activity |
| O=C(NCc1ccccc1)c1ccccc1O [Compound 4, N-benzyl-2-hydroxybenzamide] |  | > 2000 nM | > 2000 nM |  |  |  |  |  |  |  |  |
| Cc1ccnc2c1NC(=O)c1cccnc1N2C1CC1 [NVP, Nevirapine, reference compound] |  | 50 to 500 nM | > 2000 nM | 50 to 500 nM | > 2000 nM | 50 to 500 nM | > 2000 nM | > 2000 nM |  |  |  |
| COC(=O)c1ccc(C(=O)N(C)Cc2ccccc2)c(O)c1O [Compound 19, methyl 4-(N-benzyl-N-methylcarbamoyl)-2,3-dihydroxybenzoate] | > 2000 nM | > 2000 nM | > 2000 nM |  |  |  |  |  |  |  |  |
| CC(C)Oc1ccc(Cc2ccccc2)cc1C(=O)CC(=O)C(=O)O [DKA, reference compound] | 50 to 500 nM | 50 to 500 nM | > 2000 nM | 50 to 500 nM | 50 to 500 nM | 50 to 500 nM | < 50 nM | 50 to 500 nM |  |  |  |
| COC(=O)c1ccc(C(=O)NCc2cccc(OC)c2)c(O)c1O [Compound 8, methyl 4-(3-methoxybenzylcarbamoyl)-2,3-dihydroxybenzoate] | < 50 nM | 50 to 500 nM | > 2000 nM | 50 to 500 nM | 50 to 500 nM | 50 to 500 nM | 50 to 500 nM | 50 to 500 nM |  |  |  |
| COC(=O)c1ccc(C(=O)NCc2cccc([N+](=O)[O-])c2)c(O)c1O [Compound 11, methyl 4-(3-nitrobenzylcarbamoyl)-2,3-dihydroxybenzoate] | < 50 nM | < 50 nM | 500 to 2000 nM | < 50 nM | 50 to 500 nM | < 50 nM | < 50 nM | < 50 nM |  |  |  |
| COC(=O)c1ccc(C(=O)NCc2ccc(OC)cc2)c(O)c1O [Compound 9, methyl 4-(4-methoxybenzylcarbamoyl)-2,3-dihydroxybenzoate] | < 50 nM | 500 to 2000 nM | > 2000 nM |  |  |  |  |  |  |  |  |
| COC(=O)c1ccc(C(=O)NCc2ccccc2)c(O)c1O [Compound 1, methyl 4-(benzylcarbamoyl)-2,3-dihydroxybenzoate] |  | 50 to 500 nM | > 2000 nM |  |  |  |  |  | 50 to 500 nM |  |  |
